The NIST ThermoML archive (doi:10.1016/j.tca.2010.09.004)

Test: xn = mol fraction of the nth substance listed
Conditions: 101 kPa, Liquid; for speed of sound: Sing-around technique in a fixed-path interferometer; for mass density: Vibrating tube method

CCCNCCC [dipropylamine] + CCC(C)=O
Conditions	mass density [kg/m3]	speed of sound [m/s]
293.15 K, x2 = 0.0539	740.359	1208
293.15 K, x2 = 0.1021	742.443	1207.3
293.15 K, x2 = 0.1497	744.612	1206.7
293.15 K, x2 = 0.1982	746.936	1206.2
293.15 K, x2 = 0.2459	749.311	1205.7
293.15 K, x2 = 0.2983	752.034	1205.2
293.15 K, x2 = 0.3504	754.874	1204.9
293.15 K, x2 = 0.4012	757.757	1204.6
293.15 K, x2 = 0.4495	760.619	1204.3
293.15 K, x2 = 0.5068	764.2	1204.3
293.15 K, x2 = 0.5551	767.388	1204.4
293.15 K, x2 = 0.6014	770.563	1204.5
293.15 K, x2 = 0.6568	774.567	1204.8
293.15 K, x2 = 0.6968	777.603	1205.1
293.15 K, x2 = 0.7555	782.275	1205.9
293.15 K, x2 = 0.8009	786.111	1206.6
293.15 K, x2 = 0.8573	791.158	1207.8
293.15 K, x2 = 0.901	795.276	1208.9
293.15 K, x2 = 0.9479	799.908	1210.3
298.15 K, x2 = 0.0592	736.042	1186.6
298.15 K, x2 = 0.1027	737.924	1185.9
298.15 K, x2 = 0.1509	740.108	1185.2
298.15 K, x2 = 0.2001	742.441	1184.7
298.15 K, x2 = 0.2446	744.623	1184.2
298.15 K, x2 = 0.2958	747.263	1183.8
298.15 K, x2 = 0.3545	750.41	1183.3
298.15 K, x2 = 0.4003	753	1183.2
298.15 K, x2 = 0.4625	756.591	1182.5
298.15 K, x2 = 0.5006	759.04	1182.9
298.15 K, x2 = 0.5539	762.376	1182.7
298.15 K, x2 = 0.5992	765.587	1183.2
298.15 K, x2 = 0.6474	769.011	1183.4
298.15 K, x2 = 0.6987	772.61	1183.5
298.15 K, x2 = 0.7531	777.151	1184.6
298.15 K, x2 = 0.8048	781.469	1185.4
298.15 K, x2 = 0.8557	785.991	1186.6
298.15 K, x2 = 0.9041	790.463	1188
298.15 K, x2 = 0.9471	794.714	1189.1
303.15 K, x2 = 0.0658	731.678	1165.9
303.15 K, x2 = 0.0988	733.107	1165.4
303.15 K, x2 = 0.1106	733.626	1165.2
303.15 K, x2 = 0.2146	738.432	1164.1
303.15 K, x2 = 0.2595	740.626	1163.5
303.15 K, x2 = 0.3098	743.197	1163.1
303.15 K, x2 = 0.363	746.053	1162.8
303.15 K, x2 = 0.4131	748.859	1162.5
303.15 K, x2 = 0.457	751.472	1162.4
303.15 K, x2 = 0.5154	755.069	1162.3
303.15 K, x2 = 0.5554	757.601	1162.4
303.15 K, x2 = 0.6081	761.161	1162.6
303.15 K, x2 = 0.6657	765.248	1163
303.15 K, x2 = 0.7041	768.129	1163.5
303.15 K, x2 = 0.7517	771.855	1164
303.15 K, x2 = 0.8032	776.094	1164.8
303.15 K, x2 = 0.8513	780.312	1166.1
303.15 K, x2 = 0.8958	784.355	1167
303.15 K, x2 = 0.9448	789.085	1168.6
